Assay results published in patent publication USRE36520E, “HMG-CoA reductase inhibitors” (Merck & Co., Inc., priority 1998, dated 2000).

System: HMG-CoA reductase
Experiment: HMG-CoA reductase inhibition assay (in vitro protocol of J. Med. Chem., 28, 347-358)
Assay type: biochemical
Conditions: relative to compactin arbitrarily assigned a value of 100; IC50 compared with that of compactin determined simultaneously; tested as sodium salt of dihydroxy acid form; enzyme solubilized from rat liver microsomes
Procedure: The intrinsic HMG-CoA reductase inhibition activity of the claimed compounds is measured in the in vitro protocol published in J. Med. Chem., 28, p. 347-358 (1985) and described below: Male Holtzman Sprague-Dawley rats (225-250 g) were kept on reversed lighting and fed Purina rat chow containing 3% cholestyramine for 7 days preceding their sacrifice by CO2 asphyxiation. Livers were removed 6 hours into the dark cycle and used immediately to prepare microsomes. HMG-CoA reductase was solubilized from the freshly prepared microsomes by the method of Heller and Shrewsbury [J. Biol. Chem., 1976, 251, 3815] and purified through the second ammonium sulfate precipitation step as described by Kleinsek et al. [Proc. Natl. Acad. Sci. USA, 1977, 74, 1431]. […] The enzyme preparation was stored at -80° C. The assay is essentially the procedure of Shefer et al. [J. Lipid Res., 1972, 13, 402]. The complete assay medium contained the following in a total volume of 0.8 ml: phosphate buffer, pH 7.2, 100 mM; MgCl2, 3 mM; NADP, 3 mM; glucose-6-phosphate, 10 mM; glucose-6-phosphate dehydro-genase, 3 enzyme units; reduced glutathione, 50 mM; HMG-CoA (qlutaryl-3-^14 C, New England Nuclear), 0.2 mM (0.1 μCi); and partially purified enzyme stock solution, 100 μL. […] After a 40-minute incubation at 37° C. with shaking and exposure to air, the reaction was stopped by the addition of 0.4 mL of 8N HCl. After an additional 30-minute incubation period at 37° C. to ensure the complete lactonization of mevalonic acid to mevalonolactone, 0.2 ml of the mixture was added to an 0.5×5.0 cm column containing 100-200 mesh Bio-Rex 5, chloride form (Bio-Rad), wetted with distilled water, as described by Alberts et al. [Proc. Natl. Acad. Sci. U.S.A., 1980, 77, 3967]. The unreacted [^14 C]HMG-CoA was absorbed on the resin and the [^14 C]mevalonolactone was eluted with distilled water (2×1 ml) directly into 7-ml scintillation vials. Five milliliters of Aquasol-2 (New England Nuclear) was added to each vial, and radioactivity was measured in a Packard Tri Carb Prias scintillation counter. IC50 values were determined by plotting percentage inhibition against test compound concentration and fitting a straight line to the resulting data by using the least-squares method.

Sequence of HMG-CoA reductase (P51639 425-887 limits assumed): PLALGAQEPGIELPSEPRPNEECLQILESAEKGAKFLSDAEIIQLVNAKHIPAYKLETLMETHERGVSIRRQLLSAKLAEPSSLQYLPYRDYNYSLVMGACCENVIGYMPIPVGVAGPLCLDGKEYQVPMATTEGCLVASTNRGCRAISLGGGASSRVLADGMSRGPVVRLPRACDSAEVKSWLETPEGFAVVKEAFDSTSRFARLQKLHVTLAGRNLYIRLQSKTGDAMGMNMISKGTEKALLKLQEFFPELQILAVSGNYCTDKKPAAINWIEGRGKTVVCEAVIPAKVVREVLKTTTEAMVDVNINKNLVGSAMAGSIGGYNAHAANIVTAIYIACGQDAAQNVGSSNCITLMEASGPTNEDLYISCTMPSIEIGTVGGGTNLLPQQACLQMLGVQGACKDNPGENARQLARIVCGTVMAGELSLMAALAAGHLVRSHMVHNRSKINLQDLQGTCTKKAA

Row | Compound | Relative Potency
1 | 6(R)-[2-[8(S)-(2,2-dimethylbutyryloxy)-2(S)-methyl-6(S)-(2,2-dimethylbutyryloxymethyl)-1,2,3,4,4a(S),5,6,7,8,8a(S)-decahydronaphthyl-1(S)]ethyl]-4(R)-hydroxy-3,4,5,6-tetrahydro-2H-pyran-2-one | 100
2 | 6(R)-[2-[8(S)-(2-methylbutyryloxy)-6(S)-carboxy-2(S)-methyl-1,2,6,7,8,8a(R)-hexahydronaphthyl-1(S)]ethyl]-4(R)-hydroxy-3,4,5,6-tetrahydro-2H-pyran-2- one [db -- db S CO2 H sec-butyl] | 26
3 | 6(R)-[2-[8(S)-(2-methylbutyryloxy)-2(S)-methyl-6(R)-(hydroxymethyl)-1,2,6,7,8,8a(R)-hexahydronaphthyl-1(S)]ethyl]-4(R)-hydroxy-3,4,5,6-tetrahydro-2H- pyran-2-one [db -- db R CH2 OH sec-butyl] | 47
4 | 6(R)-[2-[8(S)-(2,2-Dimethylbutyryloxy)-2(S)-methyl-6(S)-carboxy-1,2,3,4,4a(S),5,6,7,8,8a(S)-decahydronaphthyl-1(S)]-ethyl]-4(R)-hydroxy-3,4,5,6-tetrahydro-2H-pyran-2-one [-- -- -- S CO2 H 1,1-dimethylpropyl] | 79
5 | 6(R)-[2-[8(S)-(Cyclohexylcarbonyloxy)-6(S)-hydroxymethyl-2(S)-methyl-1,2,3,4,4a(S),5,6,7,8,8a(S)-decahydronaphthyl-1(S)]ethyl]-4(R)-hydroxy-3,4,5,6-tetrahydro-2H-pyran-2-one [-- -- -- S CH2 OH cyclohexyl] | 33
6 | 6(R)-[2-[8(S)-(2,2-Dimethylbutyryloxy)-6(S)-hydroxymethyl-2(S)-methyl-1,2,6,7,8,8a(R)-hexahydronaphthyl-1(S)]ethyl]-4(R)-hydroxy-3,4,5,6-tetrahydro-2H-pyran-2-one [db -- db S CH2 OH 1,1-dimethylpropyl] | 189
7 | 6(R)-[2-[8(S)-(2,2-Dimethylbutyryloxy)-2(S)-methyl-6(S)-ethoxycarbonyl-1,2,3,4,4a(S),5,6,7,8,8a(S)-decahydronaphthyl-1(S)]ethyl]-4(R)-hydroxy-3,4,5,6-tetrahydro-2H-pyran-2-one [-- -- -- S CO2 Et 1,1-dimethylpropyl] | 125
8 | 6(R)-[2-[8(S)-(2,2-dimethylbutyryloxy)-2(S)-methyl-6(S)-(1-hydroxyethyl)-1,2,3,4,4a,(S),5,6,7,8,8a(R)-decahydronaphthyl-1(S)]ethyl]-4(R)-hydroxy-3,4,5,6-tetrahydro-2H-pyran-2-one [-- -- -- S CHOHCH3 (ISOMER A) 1,1-dimethylpropyl] | 131
9 | 6(R)-[2-[8(S)-(2,2-Dimethylbutyryloxy)-2(S)-methyl-6(S)-aminocarbonyl-1,2,3,4,4a(S),5,6,7,8,8a(S)-decahydronaphthyl-1(S)]ethyl]-4(R)-hydroxy-3,4,5,6- tetrahydro-2H-pyran-2-one [-- -- -- S CONH2 1,1-dimethylpropyl] | 107
10 | 6(R)-[2-[8(S)-(2,2-Dimethylbutyryloxy)-6(R)-carboxy-2(S)-methyl-1,2,6,7,8,8a(R)-hexahydronaphthyl-1(S)]ethyl]-4(R)-hydroxy-3,4,5,6-tetrahydro-2H-pyran-2-one [db -- db R CO2 H 1,1-dimethylpropyl] | 94
11 | 6(R)-[2-[8(S)-(2,2-dimethylbutyryloxy)-2(S)-methyl-6(S)-hydroxymethyl-1,2,3,4,4a(S),5,6,7,8,8a(S)-decahydronaphthyl-1(S)]ethyl]-4(R)-hydroxy-3,4,5,6- tetrahydro-2H-pyran-2-one [-- -- -- S CH2 OH 1,1-dimethylpropyl] | 86
12 | 6(R)-[2-[8(S)-(2,2-Dimethylbutyryloxy)-6(R)-hydroxymethyl-2(S)methyl-1,2,3,4,6,7,8,8a(R)-octahydronaphthyl-1(S)]ethyl]-4(R)-hydroxy-3,4,5,6-tetrahydro-2H-pyran-2-one [db -- -- R CH2 OH 1,1-dimethylpropyl] | 213
13 | 6(R)-[2-[8(S)-(2,2-Dimethylbutyryloxy)-2(S)-methyl-6(S)-isopropoxycarbonyl-1,2,3,4,4a(S),5,6,7,8,8a(S)-decahydronaphthyl-1(S)]ethyl]-4(R)-hydroxy-3,4,5,6-tetrahydro-2H-pyran-2-one [-- -- -- S CO2-i-Pr 1,1-dimethylpropyl] | 80

Next, values leading:

Row | Relative Potency | Compound
14 | 111 | 6(R)-[2-[8(S)-(2,2-dimethylbutyryloxy)-2(S)-methyl-6(R)-(1-hydroxyethyl)-1,2,3,4,4a(S),5,6,7,8,8a(S)-decahydronaphthyl-1(S)]ethyl]-4(R)-hydroxy-3,4,5,6-tetrahydro-2H-pyran-2-one [-- -- -- R CHOHCH3 (ISOMER A) 1,1-dimethylpropyl]
15 | 99 | 6(R)-[2-[8(S)-(2,2-Dimethylbutyryloxy)-6(S)-carboxy-2(S)-methyl-1,2,6,7,8,8a(R)-hexahydronaphthyl-1(S)]ethyl]-4(R)-hydroxy-3,4,5,6-tetrahydro-2H-pyran-2-one [db -- db S CO2 H 1,1-dimethylpropyl]
16 | 104 | 6(R)-[2-[8(S)-(2,2-dimethylbutyryloxy)-2(S)-methyl-6(R)-(1-hydroxyethyl)-1,2,3,4,4a(S),5,6,7,8,8a(S)-decahydronaphthyl-1(S)]ethyl]-4(R)-hydroxy-3,4,5,6-tetrahydro-2H-pyran-2-one [-- -- -- R CHOHCH3 (ISOMER B) 1,1-dimethylpropyl]
17 | 220 | 6(R)-[2-[8(S)-(2,2-Dimethylbutyryloxy)-2(S)-methyl-6(S)-(α-hydroxybenzyl)-1,2,3,4,4a(S),5,6,7,8,8a-(S)-decahydronaphthyl-1(S)]ethyl]-4(R)-hydroxy-3,4,5,6-tetrahydro-2H-pyran-2-one [-- -- -- S CHOHPH 1,1-dimethylpropyl]
18 | 65 | 6(R)-[2-[8(S)-(2,2-dimethylbutyryloxy)-6(S)-(N,N-diethyl)aminocarbonyl-2(S)-methyl-1,2,6,7,8,8a(R)-hexahydronaphthyl-1(S)]ethyl]-4(R)-hydroxy-3,4,5,6-tetrahydro-2H-pyran-2-one [db -- db S CONEt2 1,1-dimethylpropyl]
19 | 82 | 6(R)-[2-[8(S)-(2,2-Dimethylbutyryloxy)-6(S)-(N,N-dimethyl)aminocarbonyl-2(S)methyl-1,2,6,7,8,8a(R)-hexahydronaphthyl-1(S)]ethyl]-4(R)-hydroxy-3,4,5,6-tetrahydro-2H-pyran-2-one [db -- db S CONMe2 1,1-dimethylpropyl]
20 | 75 | 6(R)-[2-[8(S)-(2,2-Dimethylbutyryloxy)-2(S)-methyl-6(S)-(N,N-dimethyl)aminocarbonyl-1,2,3,4,4a(S),5,6,7,8,8a(S)-decahydronaphthyl-1(S)]-ethyl]-4(R)-hydroxy-3,4,5,6-tetrahydro-2H-pyran-2-one [-- -- -- S CONMe2 1,1-dimethylpropyl]
21 | 113 | 6(R)-[2-[8(S)-(2,2-dimethylbutyryloxy)-2(S)-methyl-6(S)-(1-hydroxyethyl)-1,2,3,4,4a,(S),5,6,7,8,8a(R)-decahydronaphthyl-1(S)]ethyl]-4(R)-hydroxy-3,4,5,6-tetrahydro-2H-pyran-2-one [-- -- -- S CHOHCH3 (ISOMER B) 1,1-dimethylpropyl]
22 | 33 | 6(R)-[2-[8(S)-(2,2-Dimethylbutyryloxy)-6(R)-(2,2-dimethylbutyryloxymethyl)-2(S)-methyl-1,2,3,4,6,7,8,8a(R)-octahydronaphthyl-1(S)]-ethyl]-4(R)-hydroxy-3,4,5,6-tetrahydro-2H-pyran-2-one

System: not listed separately
Experiment: Stability of the free dihydroxy acid on standing
Assay type: physicochemical
Conditions: dihydroxy acid can be maintained by increasing the pH above 7.0
Procedure: The sodium salt of the compound II from Example 64 is dissolved in 2 ml of ethanol-water (1:1; v:v) and added to 10 ml of 1N hydrochloric acid from which the dihydroxy acid is extracted with ethyl acetate. The organic extract is washed once with water, dried (Na2 SO4), and evaporated in vacuo with a bath temperature not exceeding 30° C. […] The dihydroxy acid can be maintained by increasing the pH above 7.0.

Row | Compound | reversion of dihydroxy acid to parent lactone
23 | CCC(C)(C)C(=O)O[C@H]1C[C@@H](CO)C[C@@H]2CC[C@H](C)[C@H](CC[C@@H](O)C[C@@H](O)CC(=O)O)[C@H]21 [Example 70] | slowly reverts to the corresponding,parent lactone on standing
